US20040248764A1 (priority 2001, published 2004)
≈ marks a conversion by molar mass, not a printed value. Where “and” joins values, the source holds several entries; their conditions need not be identical. Identical values can stand only once. Like-named read-outs stand apart in the source and are kept apart here.

What was measured:
[1] = system: Xylella; type: cell-based
[2] = system: Xylella sp. strains Shiraz, Melody, Coyaga; type: cell-based; settings: 10^8 CFU
[3] = system: Spiroplasma citri; type: cell-based
[4] = system: S. melliferum; type: cell-based
[5] = system: S. apis; type: cell-based
[6] = system: S. floricola; type: cell-based
[7] = system: Mycoplasma iowae; type: cell-based
[8] = system: aster yellow phytoplasma (AYP); type: in vivo, Catharanthus roseus
[9] = system: Xylella fastidiosa strains; assay: microbe, parasite or virus in culture; type: cell-based; settings: for MIC: Xylella fastidiosa
[10] = system: Xylella fastidiosa; type: in vivo, grapevines
[11] = system: X. fastidiosa-infected grapevines; settings: in vivo
[12] = system: X. fastidiosa-infected grapevines; settings: in vivo; remark: listed apart in the source
[13] = system: grape; settings: in vivo
[14] = system: healthy vines; settings: in vivo
[15] = system: E. coli; settings: cited from earlier work

Which results are given for `CC(C)=CCCC(C)=CC=O` [citral, 3,7-dimethyl-2,6-octadien-1-al]?
effect on Xylella ([1]; 62.5 ppm citral): No complete kill but get stasis; kill of Xylella ([1]; 125 ppm citral): 100% kill; kill of Xylella ([1]; 500 ppm citral): 100% kill; Xylella growth (CFU) ([2]; strain Coyaga, 3.25 ppm): TNTC; Xylella growth (CFU) ([2]; strain Coyaga, 62.5 ppm): TNTC; Xylella growth (CFU) ([2]; strain Melody, 3.25 ppm): TNTC; Xylella growth (CFU) ([2]; strain Melody, 62.5 ppm): TNTC; Xylella growth (CFU) ([2]; strain Shiraz, 3.25 ppm): TNTC; Xylella growth (CFU) ([2]; strain Shiraz, 62.5 ppm): TNTC**; cells that survived the treatment [3]: no cells; cells that survived the treatment [4]: no cells; color changing units [5]: 10^9 CCUs and 10^7 CCUs and 10^3 CCUs; color changing units [6]: 10^9 CCUs and 10^6 CCUs; color changing units [7]: 10^8 CCUs and 10^7 CCUs and 10^6 CCUs and 10^5 CCUs and 10^4 CCUs; kill of cells by the treatment [7]: not enough to kill; AYP symptoms of treated plants ([8]; 500 ppm citral in water, 500 mL per plant Day 8 and Day 14, three plants, as of Day 108): remained symptomless; AYP symptoms of treated periwinkles ([8]; 500 ppm, 500 mL per plant Day 8 and Day 15, three plants, as of Day 174): remained symptomless; delay of symptom development ([8]; in vivo): 22 days; effect on cells of X. fastidiosa strains ([9]; 250 ppm, 24-hr. treatment): killed cells of all 11 strains; MIC ([9]; 4 grape strains, 2 sycamore strains, and 1 peach strain): 125 µg/mL (≈ 821 µM); MIC ([9]; 24 h, strain 2#6, Plum leaf scald): 62.5 µg/mL (≈ 411 µM); MIC ([9]; 24 h, strain 3SV, Pierce's disease of grapevine): 125 µg/mL (≈ 821 µM); MIC ([9]; 24 h, strain 4#5, Phony disease of peach): 125 µg/mL (≈ 821 µM); MIC ([9]; 24 h, strain 4BD2, Pecan leaf scorch): 62.5 µg/mL (≈ 411 µM); MIC ([9]; 24 h, strain #6, Oleander leaf scorch): 62.5 µg/mL (≈ 411 µM); MIC ([9]; 24 h, strain Cayuga, Pierce's disease of grapevine): 125 µg/mL (≈ 821 µM); MIC ([9]; 24 h, strain Melody, Pierce's disease of grapevine): 125 µg/mL (≈ 821 µM); MIC ([9]; 24 h, strain SLS#61, Sycamore leaf scorch): 125 µg/mL (≈ 821 µM); MIC ([9]; 24 h, strain SLS-DC, Sycamore leaf scorch): 125 µg/mL (≈ 821 µM); MIC ([9]; 24 h, strain Shiraz, Pierce's disease of grapevine): 125 µg/mL (≈ 821 µM); MIC ([9]; 24 h, strain Yugo, Pierce's disease of grapevine): 62.5 µg/mL (≈ 411 µM); MIC ([9]; strains from grape, plum, pecan, and oleander): 62.5 µg/mL (≈ 411 µM); treated vines positive for bacteria (isolation and ELISA) ([10]; other vines, treated Day 206 and Day 213, sampled on Day 252): Four out of 15; treated vines positive for presence of bacteria (isolation and ELISA) ([10]; treated Day 0 and Day 7, sampled on Day 252): Three out of 15; average branch length longer than control vines [11]: ~6 inches; average fruit yield [12]: about 4.8 lbs of fruit per vine; average increased yield [12]: about 6.25%; concentration at which phytotoxic ([13]; grape): approximately 5000 ppm; phytotoxicity in grape [13]: phytotoxicity; weekly observations of treated healthy vines [14]: no phytoplasma on any plants; citral in growth media that reduced the concentration of E. coli [15]: more than 0.01%; citral in growth media with bactericidal effect [15]: 0.08%
